From patent US7691836B2, “Progesterone receptor modulators” (N.V. Organon, priority 2004, dated 2010)
Counter-ions that a name gives are not always drawn.

Key:
[1] = molecular target: T1, progesterone receptor-B (Homo sapiens, UniProt P06401); assay: Progesterone receptor-B transactivation, antagonistic mode (inhibition of luciferase transactivation by inducer, CHO cells); format: cell-based; details: for Emax: CHO, read-out: PRBant Eff (%); for EC50: in the presence of 0.1 nM inducer (16α)-16-ethyl-21-hydroxy-19-norpregn-4-ene-3,20-dione, read-out: PRBant EC50
T1 sequence (P06401 1-933): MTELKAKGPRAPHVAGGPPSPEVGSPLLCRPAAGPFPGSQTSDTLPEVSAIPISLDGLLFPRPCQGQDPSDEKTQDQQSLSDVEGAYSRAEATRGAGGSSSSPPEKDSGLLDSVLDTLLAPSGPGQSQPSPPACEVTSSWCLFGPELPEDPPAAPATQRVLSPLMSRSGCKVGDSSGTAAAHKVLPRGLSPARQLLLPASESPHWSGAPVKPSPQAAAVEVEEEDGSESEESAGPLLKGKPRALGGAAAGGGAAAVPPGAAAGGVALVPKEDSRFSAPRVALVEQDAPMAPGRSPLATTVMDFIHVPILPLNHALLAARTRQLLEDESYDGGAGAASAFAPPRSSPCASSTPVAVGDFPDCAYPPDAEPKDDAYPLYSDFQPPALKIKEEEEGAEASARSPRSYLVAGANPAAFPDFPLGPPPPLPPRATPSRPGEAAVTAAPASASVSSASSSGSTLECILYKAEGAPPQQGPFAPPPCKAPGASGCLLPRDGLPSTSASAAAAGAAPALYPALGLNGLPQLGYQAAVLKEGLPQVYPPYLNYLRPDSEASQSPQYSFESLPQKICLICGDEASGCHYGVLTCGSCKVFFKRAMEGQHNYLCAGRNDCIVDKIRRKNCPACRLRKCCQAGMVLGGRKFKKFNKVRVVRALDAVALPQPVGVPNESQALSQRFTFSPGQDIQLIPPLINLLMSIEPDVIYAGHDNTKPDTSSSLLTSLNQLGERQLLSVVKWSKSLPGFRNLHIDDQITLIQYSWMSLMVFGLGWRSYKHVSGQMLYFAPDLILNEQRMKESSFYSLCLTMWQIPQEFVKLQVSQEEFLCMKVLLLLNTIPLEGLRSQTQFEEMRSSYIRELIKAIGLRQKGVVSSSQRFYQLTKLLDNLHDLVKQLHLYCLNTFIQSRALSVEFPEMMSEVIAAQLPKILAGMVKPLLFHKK
Procedure: In the antagonistic mode, testing must result in an intrinsic activity of between about 85% and about 15% of the maximal activity when (6β,11β,17β)-11-[4-(dimethylamino)phenyl]-4′,5′-dihydro-6-methylspiro[estra-4,9-diene-17,2′(3′H)-furan]-3-one is used as a reference.
(§1) The progestagenic activity of a compound of the invention (EC50 and intrinsic agonistic activity) was determined in an in vitro bioassay of Chinese hamster ovary (CHO) cells as described by W. G. E. J. Schoonen et al. (Anal. Biochem. 261 (1998), 222-224). […] The efficacy of the antagonistic effect was expressed as the percentage of the effect produced by a standard antagonist, (6β,11β,17β)-11-[4-(dimethylamino)phenyl]-4′,5′-dihydro-6-methylspiro[estra-4,9-diene-17,2′(3′H)-furan]-3-one.
(§2) It will be recognized by those skilled in the art that, in the setting described above, the EC50 determined is more or less absolute and depends on the intrinsic property of the tested compound itself, however, the IC50 depends on the amount and agonistic EC50 of the inducer as well as on the intrinsic property of the tested compound itself. Thus, with the same amount of inducer, a relatively strong antagonist will be able to produce a measurable IC50 whereas a relatively weak antagonist may fail to produce a detectable result.

[2] = molecular target: T1, progesterone receptor-B; assay: Progesterone receptor-B transactivation, agonistic mode (CHO cells, luciferase); format: cell-based; details: for EC50: CHO cells, agonistic mode, read-out: PRBagoEC50; for Emax: CHO, read-out: PRBago Eff (%)
Source text: For selecting compounds of the subject invention with a mixed modulating effect on the progesterone receptor, testing in the agonistic mode must result in an intrinsic activity of between about 15% and about 85% of the maximal activity when (16α)-16-ethyl-21-hydroxy-19-norpregn-4-ene-3,20-dione is used as a reference. Moreover, this maximal agonistic activity should be reached at a concentration of 10^−6 or less, and preferably at a concentration of 10^−8 or less.
as §1, §2

[3] = intrinsic antagonistic activity, percentage of effect of standard antagonist (6β,11β,17β)-11-[4-(dimethylamino)phenyl]-4′,5′-dihydro-6-methylspiro[estra-4,9-diene-17,2′(3′H)-furan]-3-one, 0.1 nM inducer
[4] = intrinsic agonistic activity, relative to reference (16α)-16-ethyl-21-hydroxy-19-norpregn-4-ene-3,20-dione

Emax [1, 3] [%]	EC50 [1] [nM]	EC50 [2] [nM]	Emax [2, 4] [%]	PRBant Eff (%) ([1]; intrinsic antagonistic activity, percentage of effect of standard antagonist (6β,11β,17β)-11-[4-(dimethylamino)phenyl]-4′,5′-dihydro-6-methylspiro[estra-4,9-diene-17,2′(3′H)-furan]-3-one, 0.1 nM inducer, hydrochloride)	PRBago Eff (%) [2, 4] [%]	SMILES
66	0.751	0.82	36			C[C@]12C[C@H](c3ccc(-c4cccnc4)cc3)C3=C4CCC(=O)C=C4CC[C@H]3[C@@H]1CC[C@@H]2C(=O)C1CC1 [Example 18, (11β,17β)-17-cyclopropylcarbonyl-11-[4-(3-pyridinyl)phenyl]estra-4,9-dien-3-one]
57	0.427	0.51	28.3			COc1ccc(-c2ccc([C@H]3C[C@]4(C)[C@@H](C(=O)C5CC5)CC[C@H]4[C@@H]4CCC5=CC(=O)CCC5=C43)cc2)cn1 [Example 19, (11β,17β)-17-cyclopropylcarbonyl-11-[4-(6-methoxypyridin-3-yl)phenyl]estra-4,9-dien-3-one]
58	0.13	0.49	37.5			C[C@]12C[C@H](c3ccc(-c4cccnc4)cc3)C3=C4CCC(=O)C=C4CC[C@H]3[C@@H]1CC[C@]2(C)C(=O)C1CC1 [Example 20, (11β,17β)-17-cyclopropylcarbonyl-17-methyl-11-[4-(3-pyridinyl)-phenyl]estra-4,9-dien-3-one]
58	1.4	2	18			C[C@]12C[C@H](c3ccc(-c4cccnc4)cc3)C3=C4CCC(=O)C=C4CC[C@H]3[C@@H]1C[C@H]1C[C@]12C(=O)C1CC1 [Example 21, (11β,16α,17β)-17-cyclopropylcarbonyl-16,17-dihydro-11-[4-(3-pyridinyl)phenyl]-3′H-cyclopropa[16,17]estra 4,9,16-trien-3-one]
32	1.47	0.64	43			C[C@@H]1C[C@H]2[C@@H]3CCC4=CC(=NO)CCC4=C3[C@@H](c3ccc(-c4cccnc4)cc3)C[C@]2(C)[C@H]1C(=O)C1CC1 [Example 22, (11β,16α,17β)-17-cyclopropylcarbonyl-16-methyl-11-[4-(3-pyridinyl)-phenyl]estra-4,9-dien-3-one 3-oxime]
70.8	0.325	0.29	17			CC12CC(c3ccc(-c4cccnc4)cc3)C3=C4CCC(=O)C=C4CCC3C1CCC21CCCC1=O (stereo not drawn) [Example 23, (11β)-11-[4-(3-pyridinyl)phenyl]-17,24-cyclo-19,21-dinorchola 4,9-diene-3,20-dione]
62	0.546	0.15	20			COc1ccc(-c2ccc([C@H]3C[C@@]4(C)[C@@H](CC[C@@]45CCCC5=O)[C@@H]4CCC5=CC(=O)CCC5=C43)cc2)cn1 [Example 24, (11β)-11-[4-(6-methoxypyridin-3-yl)phenyl]-17,24-cyclo-19,21-dinorchola 4,9-diene-3,20-dione]
	1.1	0.48		66	17	CC12CC(c3ccc(-c4cccnc4)cc3)C3=C4CCC(=O)C=C4CCC3C1CCC21CCCC1=O (stereo not drawn) [Example 25, (11β)-11-[4-(3-pyridinyl)phenyl]-17,24-cyclo-19,21-dinorchola-4,9-diene-3,20-dione hydrochloride]
17	2.75	0.809	46			C[C@@H]1C[C@@H]2C(=C3CCC(=O)C=C31)[C@@H](c1ccc(-c3cccnc3)cc1)C[C@@]1(C)[C@H]2C[C@@H](C)[C@@H]1C(=O)C1CC1 [Example 26, (6β,11β,16α,17β)-17-cyclopropylcarbonyl-6,16-dimethyl-11-[4-(3-pyridinyl)-phenyl]estra-4,9-dien-3-one]
> 27	3.25	2.54	52			C[C@@H]1C[C@H]2[C@@H]3CCC4=CC(=O)CCC4=C3[C@@H](c3ccc(-c4ncccn4)cc3)C[C@]2(C)[C@H]1C(=O)C1CC1 [Example 27, (11β,16α,17β)-17-cyclopropylcarbonyl-16-methyl-11-[4-(pyrimidin-2-yl)phenyl]estra-4,9-dien-3-one]
